According to patent publication US20240108684A1, “DOSING REGIMENS FOR TREATMENT OF FUNGAL INFECTIONS” (priority 2016, published 2024):
Like-named read-outs stand apart in the source and are kept apart here. *1 amine or outer side, *2 acyl side, *3 side chain or, on linkers, in order; H or OH if unused. Where a SMILES comes first, the peptide text is derived from it. Bridges are numbered along the chain shown (N, C = ends). [ ]: non-standard residue; d: D form. The star is where a group is joined. Orn(4R-OH,5R-OCH2CH2NMe3+) = C[N+](C)(C)CCO[C@@H](N[*:3])[C@H](O)C[C@H](N[*:1])C(=O)[*:2]; pTerphenylCO(4''-OnC5H11) = CCCCCOc1ccc(-c2ccc(-c3ccc(C(=O)*)cc3)cc2)cc1; hTyr(3S-OH,4S-OH) = N[C@H](C(=O)O)[C@H](O)[C@@H](O)c1ccc(O)cc1; Pro(3S-OH,4S-Me) = C[C@H]1CN[C@H](C(=O)O)[C@H]1O; Hyp = O=C(O)[C@@H]1C[C@@H](O)CN1

Assays:
[1] = system: Aspergillus fumigatus (ATCC 13073); experiment: Neutropenic mouse model of aspergillosis, survival; format: in vivo, mice; details: 2 mg/kg IV or IP one dose; 10 days; P<0.05
C.albicans (Strain R303) = experiment: Dose-fractionation study in neutropenic mice, kidney fungal burden; details: 2 mg/kg as a single dose IP, at 168 hours
Experimental: Dose-Fractionation Study. Male or female ICR mice (5 per regimen and observation time) weighing 22±2 g were rendered neutropenic for the study by injecting the mice with cyclophosphamide treatment four days (−Day 4) (150 mg/kg IP) and one day (−Day 1) prior to infection at 100 mg/kg IP. Neutropenia was sustained for the duration of the study with cyclophosphamide doses (100 mg/kg IP) every 48 hours on days +1, +3, +5 and +7 after infection.
Mice were sacrificed 168 hours (7 days) following the start of treatment. Control arm mice were sacrificed 0, 24, and 48 hours post administration of vehicle. Paired kidneys are aseptically harvested, homogenized, and plated for colony counts to determine the fungal burden (CFU/g).

C. albicans [2] = details: Sentry 2014; compared with MIC of 0.5 mg/L; cited from earlier work
[3] = Plasma protein binding assumed for the simulations; format: in vitro ADME; details: assumed for the Monte Carlo simulations
Experimental: (§1) Monte Carlo simulations were conducted to assess the probability of PK-pharmacodynamic (PD) target attainment using a variety of exploratory dosing regimens. Two dosing regimens were selected for further investigation (Table 5). […] Nonclinical studies of Candida albicans infections in mice have shown that a CD101 fAUC0-168:MIC ratio of 10 has been associated with a 2-log reduction in fungal burden in infected kidneys. This value of 10 was therefore chosen as the PK-PD target of interest for the Monte Carlo simulations.

Murine protein binding = format: in vitro ADME; details: used to generate free-drug plasma concentrations
C. glabrata = experiment: MIC by CLSI standards; details: Nakaseomyces glabratus
[4] = Solubility of test articles in vehicle, visual observation; details: 10% DMSO/1% Tween 20 in 0.9% NaCl; 0.3, 1 and 3 mg/mL
Experimental: Amphotericin B and fluconazole were in powder form. Amphotericin B was dissolved in 0.9% NaCl. Fluconazole was dissolved in water (WFI: water for injection).

[5] = Multiple ascending dose IV study in healthy adult subjects (safety, PK); format: in vivo, human; details: for Accumulation Ratio AUC0-168 / Accumulation Ratio Cmax: last/first dose; for Cmax / AUC(0-t): human, plasma, intravenous; for AUC(0-t): read-out: AUC0-168
Experimental: A second study of CD101 administered by IV injection to healthy adult subjects was also performed. In this study, subjects in 3 cohorts of 8 subjects (6 active, 2 placebo) each were randomized to receive multiple IV doses of CD101 or placebo (normal saline) infused over 60 (±5) minutes. Dose levels of CD101 assessed follow an ascending multiple-dose regimen (100 mg×2 doses, 200 mg×2 doses, or 400 mg×3 doses).
Pharmacokinetics were determined by analyzing plasma and urine samples for concentration of CD101 obtained from subjects who received CD101 in each cohort at various time points after administration of CD101.

C. albicans [6] = experiment: Mutant prevention concentration (MPC); format: cell-based, Candida albicans
Source text: As used herein, the term “mutant prevention concentration” or “MPC” refers to the concentration of a drug sufficient to suppress the development of all but very rare spontaneous mutants. The range of drug concentrations between the MIC and MPC represents a mutant selection window wherein de novo mutants are most likely to occur. Therapeutic regimens that maximize the duration of drug concentrations in excess of the MPC thereby minimize the potential for resistance development during the course of therapy.
(§2) Selection of resistance strains in vivo predominantly occurs over a range of drug concentrations falling between the MIC and MPC values. Dosing paradigms that result in plasma drug concentrations in excess of the MPC are therefore more desirable and effective in preventing the development of de novo mutants during the course of therapy (see, e.g., Drlica et al., J. Antimicrob. Chemother. 52:11-17, 2003). Currently approved treatment regimens for caspofungin, micafungin, and anidulafungin involve once-daily dosing at levels such that the Cmax is unlikely to be equivalent to or exceed the MPC at any point during treatment.

C. auris isolates = experiment: Candida auris antifungal susceptibility testing (AFST), CLSI M27-A3; format: cell-based
[7] = Pharmacokinetic study, single IP dose; format: in vivo, ICR mice; details: 1 to 16 mg/kg IP
Experimental: Pharmacokinetic Study. Healthy female ICR mice were given a single dose of CD101 via intraperitoneal (IP) injection. The following doses, at three mice per dose, were studied: 1, 4, and 16 mg/kg.

C. albicans [8] = experiment: Neutropenic murine disseminated candidiasis model, PK/PD; details: for 1 log kill dose / Static Dose: single IP dose
C. albicans [9] = experiment: MIC by CLSI standards; details: Candida albicans
[10] = Single dose plasma PK after IP doses; details: mouse, 64 mg/kg
Candida albicans = experiment: Nonclinical studies of Candida albicans infections in mice (PK-PD target); format: in vivo
Experimental: as §1

[11] = Modeling of CD101 total plasma concentrations versus MPC; details: modeling based on in vivo PK data
Source text: as §2

[12] = 100 mg x2, 200 mg x2 or 400 mg x3 doses IV

CCCCCOc1ccc(-c2ccc(-c3ccc(C(=O)N[C@H]4C[C@@H](O)[C@@H](OCC[N+](C)(C)C)NC(=O)[C@@H]5[C@@H](O)[C@@H](C)CN5C(=O)[C@H]([C@@H](C)O)NC(=O)[C@H]([C@H](O)[C@@H](O)c5ccc(O)cc5)NC(=O)[C@@H]5C[C@@H](O)CN5C(=O)[C@H]([C@@H](C)O)NC4=O)cc3)cc2)cc1 [CD101] ({pTerphenylCO(4''-OnC5H11)}-[Orn(4R-OH,5R-OCH2CH2NMe3+)]T[Hyp][hTyr(3S-OH,4S-OH)]T[Pro(3S-OH,4S-Me)]; lactam 1-C)
Survival versus vehicle [1]: significantly longer survival than vehicle | CFU reduction from baseline (C.albicans (Strain R303)): greater than 2 log10 CFU | MIC90 (C. albicans [2]): 0.06 µg/mL | Plasma protein binding [3]: 99.1% | Murine protein binding value (Murine protein binding): 99.1% | MIC (C. glabrata; C. glabrata 5592): 0.06 µg/mL | MIC (C. glabrata; C. glabrata 10956): 0.5 µg/mL | MIC (C. glabrata; C. glabrata 35315): 0.25 µg/mL | MIC (C. glabrata; read-out: MICs, 3 C. glabrata strains): 0.06 to 0.5 µg/mL | Solubility [4]: S | Accumulation Ratio AUC0-168 ([5]; 100 mg (Day 1/Day 8)): 1.30 | Accumulation Ratio Cmax ([5]; 100 mg (Day 1/Day 8)): 1.14 | Drug-related AEs from laboratory abnormalities [5, 12]: no drug-related AEs resulting from clinically significant hematology or clinical chemistry laboratory abnormalities at any dose | ECG, vital signs, physical exam [5, 12]: no safety issues related to ECGs, vital signs, or physical exam findings | Serious and severe adverse events [5, 12]: no SAEs or severe AEs | Severity and resolution of AEs [5, 12]: majority of AEs were mild, and all related AEs completely resolved by the end of the study | Accumulation Ratio AUC0-168 ([5]; 200 mg (Day 1/Day 8)): 1.43 | Accumulation Ratio Cmax ([5]; 200 mg (Day 1/Day 8)): 1.17 | Accumulation Ratio AUC0-168 ([5]; 400 mg (Day 1/Day 8/Day 15)): 1.55 | Accumulation Ratio Cmax ([5]; 400 mg (Day 1/Day 8/Day 15)): 1.34 | Cmax ([5]; 100 mg, 100 mg weekly, Day 1): 5670 ng/mL | AUC(0-t) ([5]; 100 mg, 100 mg weekly, Day 1): 299 µg·h/mL | Cmax ([5]; 100 mg, 100 mg weekly, Day 8): 6490 ng/mL | AUC(0-t) ([5]; 100 mg, 100 mg weekly, Day 8): 390 µg·h/mL | Cmax ([5]; 200 mg, 200 mg weekly, Day 1): 10600 ng/mL | AUC(0-t) ([5]; 200 mg, 200 mg weekly, Day 1): 570 µg·h/mL | Cmax ([5]; 200 mg, 200 mg weekly, Day 8): 12400 ng/mL | AUC(0-t) ([5]; 200 mg, 200 mg weekly, Day 8): 813 µg·h/mL | Cmax ([5]; 400 mg, 400 mg weekly, Day 1): 22700 ng/mL | AUC(0-t) ([5]; 400 mg, 400 mg weekly, Day 1): 1190 µg·h/mL | Cmax ([5]; 400 mg, 400 mg weekly, Day 15): 30500 ng/mL | AUC(0-t) ([5]; 400 mg, 400 mg weekly, Day 15): 1840 µg·h/mL | Safety and tolerability ([5]; multiple doses up to 400 mg): safe and well tolerated | Infusion reactions ([5]; primarily 400 mg cohort, most common with third dose): Four subjects in the CD101 group experienced mild, transient infusion reactions | MPC (C. albicans [6]): 16 µg/mL | Activity in comparison (C. auris isolates; 38 C. auris isolates): activity similar to MICA | Breakthrough at 48 h (C. auris isolates; C. auris strains): not with CD101 | Number of resistant C. auris isolates (C. auris isolates; of 38 isolates): 4 | Linearity of PK [7]: linear PK | 1 log kill Ave 24 h AUC/MIC (C. albicans [8]; C. albicans 98-17): 490 | Stasis Ave 24 h AUC/MIC (C. albicans [8]; C. albicans 98-17): 274 | 1 log kill dose (C. albicans [8]; C. albicans 98-17, 7 days): 2.73 mg/kg | Static Dose (C. albicans [8]; C. albicans 98-17, 7 days): 1.34 mg/kg | 1 log kill Ave 24 h AUC/MIC (C. albicans [8]; C. albicans 98-210): 1574 | Stasis Ave 24 h AUC/MIC (C. albicans [8]; C. albicans 98-210): 868 | 1 log kill dose (C. albicans [8]; C. albicans 98-210, 7 days): 2.28 mg/kg | Static Dose (C. albicans [8]; C. albicans 98-210, 7 days): 1.06 mg/kg | 1 log kill Ave 24 h AUC/MIC (C. albicans [8]; C. albicans 580): 1429 | Stasis Ave 24 h AUC/MIC (C. albicans [8]; C. albicans 580): 948 | 1 log kill dose (C. albicans [8]; C. albicans 580, 7 days): 2.03 mg/kg | Static Dose (C. albicans [8]; C. albicans 580, 7 days): 1.20 mg/kg | 1 log kill Ave 24 h AUC/MIC (C. albicans [8]; C. albicans K-1): 6435 | Stasis Ave 24 h AUC/MIC (C. albicans [8]; C. albicans K-1): 3426 | 1 log kill dose (C. albicans [8]; C. albicans K-1, 7 days): 5.26 mg/kg | Static Dose (C. albicans [8]; C. albicans K-1, 7 days): 2.52 mg/kg | Maximal kill (C. albicans [8]; C. albicans and C. glabrata strains, 0.016-64 mg/kg once IP, 7 days): over 2 log10 CFU/kidney | MIC (C. albicans [9]; C. albicans 98-17): 0.06 µg/mL | MIC (C. albicans [9]; C. albicans 98-210): 0.016 µg/mL | MIC (C. albicans [9]; C. albicans 580): 0.016 µg/mL | MIC (C. albicans [9]; C. albicans K-1): 0.008 µg/mL | MIC (C. albicans [9]; read-out: MICs, 4 C. albicans strains): 0.008 to 0.06 µg/mL | AUC(0-inf) [10]: 93 to 4050 µg·h/mL | Cmax [10]: 2600 to 77000 ng/mL | half-life [10]: 28 to 41 h | fAUC0-168:MIC ratio associated with a 2-log reduction in fungal burden in infected kidneys (Candida albicans): 10 | IV dose sufficient to generate concentrations in excess of 16 μg/ml (MPC) [11]: ≥ 150 mg
